# From patent publication US12263172B2, “Toll-like receptor agonists for use in the treatment of hepatitis b” (priority 2019, dated 2025)
# Assays:
# [1] = pharmacokinetics and metabolism in animals; format: in vivo, rats and monkeys
# Description: (§1) Exposure increased more than dose-proportionally at low doses. Variability in exposure was high. • In vitro plasma protein binding was between 79.6% and 94.2% in animals and humans. Volume of distribution after intravenous dosing was high. […] Main metabolic pathways were oxygenation, hydrogenation, dehydrogenation, dealkylation, acetylation, glucuronidation, and/or glutathione conjugation. • In rats, >80% of drug-related material was found in feces, 11% to 20% in bile, and <4% in urine. […] There were no effects on embryofetal development up to 1 mg/kg/dose in rats and 30 mg/kg/dose in rabbits.
# [2] = molecular target: T1, organic ion transporter 2 (OCT2) (Homo sapiens, UniProt O15244); test: OCT2 inhibition in vitro; format: in vitro ADME
# T1 sequence (O15244 1-555): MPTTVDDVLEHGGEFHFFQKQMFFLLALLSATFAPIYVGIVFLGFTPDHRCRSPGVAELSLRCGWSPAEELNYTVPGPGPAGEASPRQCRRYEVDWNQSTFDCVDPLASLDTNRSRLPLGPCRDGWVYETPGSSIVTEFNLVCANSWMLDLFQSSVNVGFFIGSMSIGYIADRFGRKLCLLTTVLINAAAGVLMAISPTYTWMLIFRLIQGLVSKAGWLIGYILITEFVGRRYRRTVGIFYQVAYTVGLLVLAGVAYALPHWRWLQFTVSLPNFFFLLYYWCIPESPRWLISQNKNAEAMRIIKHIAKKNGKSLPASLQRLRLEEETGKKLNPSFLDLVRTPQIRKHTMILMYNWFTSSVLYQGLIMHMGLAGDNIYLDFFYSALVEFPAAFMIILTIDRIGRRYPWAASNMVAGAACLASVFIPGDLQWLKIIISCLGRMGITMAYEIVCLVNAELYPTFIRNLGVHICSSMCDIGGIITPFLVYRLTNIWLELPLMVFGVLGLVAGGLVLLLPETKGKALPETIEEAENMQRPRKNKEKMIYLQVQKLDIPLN
# Description: as §1
# [3] = in vitro permeability and P-glycoprotein substrate; format: in vitro ADME
# Description: as §1
# [4] = molecular target: P-glycoprotein (Homo sapiens, UniProt P08183); test: in vitro permeability and P-glycoprotein substrate; format: in vitro ADME
# Sequence of P-glycoprotein (P08183 whole entry): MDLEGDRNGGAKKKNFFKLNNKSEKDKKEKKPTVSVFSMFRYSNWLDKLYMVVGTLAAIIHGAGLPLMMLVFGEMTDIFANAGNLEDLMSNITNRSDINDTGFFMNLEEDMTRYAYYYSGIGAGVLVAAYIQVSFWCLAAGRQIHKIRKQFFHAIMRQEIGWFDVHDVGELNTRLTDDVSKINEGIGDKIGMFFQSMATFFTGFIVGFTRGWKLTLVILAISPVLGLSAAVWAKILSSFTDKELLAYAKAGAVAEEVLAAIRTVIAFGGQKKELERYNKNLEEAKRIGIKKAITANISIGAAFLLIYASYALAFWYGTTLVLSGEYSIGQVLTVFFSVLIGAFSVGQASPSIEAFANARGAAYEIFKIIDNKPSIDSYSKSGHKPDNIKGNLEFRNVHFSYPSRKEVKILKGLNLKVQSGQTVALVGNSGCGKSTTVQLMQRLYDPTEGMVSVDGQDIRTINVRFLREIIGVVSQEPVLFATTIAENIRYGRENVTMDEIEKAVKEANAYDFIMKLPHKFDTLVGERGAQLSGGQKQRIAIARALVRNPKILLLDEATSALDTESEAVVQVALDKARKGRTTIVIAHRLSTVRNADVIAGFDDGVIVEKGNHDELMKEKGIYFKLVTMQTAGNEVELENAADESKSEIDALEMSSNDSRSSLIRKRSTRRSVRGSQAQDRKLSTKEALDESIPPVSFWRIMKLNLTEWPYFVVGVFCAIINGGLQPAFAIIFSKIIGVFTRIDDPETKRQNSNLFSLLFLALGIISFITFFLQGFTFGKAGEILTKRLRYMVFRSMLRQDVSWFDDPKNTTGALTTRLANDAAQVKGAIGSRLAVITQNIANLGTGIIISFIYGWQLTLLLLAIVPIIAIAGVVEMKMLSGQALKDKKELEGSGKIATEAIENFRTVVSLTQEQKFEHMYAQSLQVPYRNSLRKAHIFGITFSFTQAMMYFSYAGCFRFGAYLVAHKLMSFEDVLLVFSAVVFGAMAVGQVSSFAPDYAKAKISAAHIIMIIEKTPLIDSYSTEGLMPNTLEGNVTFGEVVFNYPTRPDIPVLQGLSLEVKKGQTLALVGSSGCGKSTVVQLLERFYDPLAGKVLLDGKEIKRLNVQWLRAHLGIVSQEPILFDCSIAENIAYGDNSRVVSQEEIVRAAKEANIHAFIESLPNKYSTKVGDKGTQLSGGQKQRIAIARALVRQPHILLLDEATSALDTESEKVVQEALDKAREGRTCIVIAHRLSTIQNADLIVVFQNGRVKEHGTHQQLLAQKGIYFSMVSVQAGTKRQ
# Description: as §1
smiles,measurement,setting,value
CCCCOc1nc(N)c2[nH]cc(Cc3ccc(CN4CCCC4)cc3)c2n1 [Compound 4],blood clearance,[1]; in vivo,moderate
same,volume of distribution,[1]; intravenous dosing,high
same,tissue distribution,[1]; oral dosing in rats and monkeys,"highest levels in liver, small intestines and brain"
same,half-life,"[1]; rat, monkey, in vivo",5 to 14 h
same,Tmax,"[1]; rat, monkey, in vivo, oral dosing",0.8 to 2 h
same,IC50,[2],4.97 µM
same,in vitro permeability,[3],low
same,P-glycoprotein substrate,[4],P-glycoprotein substrate
